From patent US6649654B1, “Methods for identifying and using IKK inhibitors” (The Regents of the University of California, priority 1999, dated 2003)
Entries after “also recorded” stand apart in the source; their conditions may differ.

Columns and labels:
[1] = tested on: carrageenin-induced pleurisy; details: rats, endogenous and exogenous 15dPGJ2; Gilroy et al.; cited from earlier work
[2] = target: T1, IKKβ(C179A) (Homo sapiens, UniProt O14920, C179A); test: 2XNFκB-LUC reporter in HeLa cells with NIK and IKKβ(C179A); format: cell-based; parameters: FLAG; made in house; details: luciferase at 24 hours, FIG. 6E
T1 sequence (O14920 1-756 C179A): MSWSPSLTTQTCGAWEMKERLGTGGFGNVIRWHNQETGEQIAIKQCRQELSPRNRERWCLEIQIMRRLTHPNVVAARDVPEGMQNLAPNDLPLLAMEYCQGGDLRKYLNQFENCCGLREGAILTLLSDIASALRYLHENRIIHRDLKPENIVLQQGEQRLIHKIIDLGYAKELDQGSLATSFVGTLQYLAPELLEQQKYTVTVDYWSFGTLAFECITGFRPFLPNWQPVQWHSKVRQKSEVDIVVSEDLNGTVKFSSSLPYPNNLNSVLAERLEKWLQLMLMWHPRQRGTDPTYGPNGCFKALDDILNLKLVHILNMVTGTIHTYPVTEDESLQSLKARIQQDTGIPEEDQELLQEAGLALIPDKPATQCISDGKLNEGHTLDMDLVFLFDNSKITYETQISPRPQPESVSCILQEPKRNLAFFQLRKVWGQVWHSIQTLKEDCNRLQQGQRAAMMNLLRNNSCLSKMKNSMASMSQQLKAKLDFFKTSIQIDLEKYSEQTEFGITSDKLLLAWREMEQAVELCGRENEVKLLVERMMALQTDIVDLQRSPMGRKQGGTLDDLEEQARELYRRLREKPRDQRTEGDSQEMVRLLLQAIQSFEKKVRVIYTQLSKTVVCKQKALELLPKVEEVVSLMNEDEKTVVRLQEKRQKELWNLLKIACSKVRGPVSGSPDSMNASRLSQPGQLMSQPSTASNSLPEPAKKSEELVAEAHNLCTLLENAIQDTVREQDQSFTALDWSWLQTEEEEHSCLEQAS
Procedure: Recombinant IKKβ(C179A) was also resistant to concentrations of 15dPGJ2 that were inhibitory to wild-type IKKβ (as shown in FIG. 6D), and also to PGA1. An NF-κB dependent transcriptional reporter (2XNFκB-LUC) was preincubated with expression vector encoding either wild-type IKKβ or IKKβ(C179A). A NIK expression vector was included to ensure maximal IKK activation. […] FIG. 6E provides the results for HeLa cells transiently transfected with a 2×NF-κB-LUC reporter, a NIK expression vector and expression vectors for wild type IKKβ or IKKβ(C179A). At 3 hours post-transfection, cells were treated with 15dPGJ2 and at 24 hours, the luciferase activities were determined for duplicate samples. In each case, the maximal activity achieved in the absence of inhibitor was given an arbitrary value of 100% and the other values were calculated relative to this one.

[3] = target: IKK (Homo sapiens, UniProt O14920+O15111); test: MEKK1-induced IKK activity in Jurkat cells; format: cell-based; details: data not shown
Procedure: (§1) Cells used in the experiments described herein were cultured in either RPMI 1640 (Jurkat cells) or DMEM (HeLa and COS cells), supplemented with 10% FBS and antibiotics. Cells were stimulated with either 25 ng/ml TPA, 20 ng/ml recombinant TNFα, or 10 ng/ml interleukin 1β (Sigma). PGA1, 15dPGJ2, T×B2, LTB4, AA and other PGs (Cayman) dissolved in ethanol were used as well, as known in the art (See e.g., Rossi et al., 94:746-750 [1997]). Controls received equal amounts of ethanol. Transfections were performed using Lipofectamine Plus (GIBCO) for HeLa and COS cells and DEAE-dextran (Sigma) for Jurkat cells. Xpress-tagged NIK, Xpress-tagged MEKK1, HA-tagged IKKα, and HA-tagged IKKβ were also used (See e.g., Zandi et al., Science 281:1360-1363 [1998]; and Delhase et al., Science 284:309-313 [1999]). COX2 and cPLA2 expression vectors were obtained from Dr. L. Feng (See also, Hirose et al., J. Am. Soc. Nephrol., 9:408-416 [1998]). PGD synthase was cloned from HT29 colon carcinoma cell line cDNA by PCR and subcloned into a pCDNA3 vector. […]
Cell lysates were incubated with anti-IKKα (Pharmingen), anti-HA (12CA5; Pharmingen), anti-JNK1 (333.8; Pharmingen), or anti-p38 (New England Biolabs) for 2 hours. […] Endogenous IKK, HA-tagged IKKα, endogenous JNK1, and p38 activities were determined with GST-1κBα(1-54), GST-c-Jun(1-79), and GST-ATF2 as substrates.

[4] = tested on: IκBα; test: IκBα degradation in stimulated Jurkat cells (immunoblot); format: cell-based, human; details: TNFα or TPA
Procedure: as §1
In addition, recombinant IKKβ was expressed in Sf9 cells and purified as described (Zandi et al., supra). […] After 1.5 hours at 4° C., the immunoprecipitates were washed and the kinase activity determined. […]

Chain of IKK (O14920 whole entry): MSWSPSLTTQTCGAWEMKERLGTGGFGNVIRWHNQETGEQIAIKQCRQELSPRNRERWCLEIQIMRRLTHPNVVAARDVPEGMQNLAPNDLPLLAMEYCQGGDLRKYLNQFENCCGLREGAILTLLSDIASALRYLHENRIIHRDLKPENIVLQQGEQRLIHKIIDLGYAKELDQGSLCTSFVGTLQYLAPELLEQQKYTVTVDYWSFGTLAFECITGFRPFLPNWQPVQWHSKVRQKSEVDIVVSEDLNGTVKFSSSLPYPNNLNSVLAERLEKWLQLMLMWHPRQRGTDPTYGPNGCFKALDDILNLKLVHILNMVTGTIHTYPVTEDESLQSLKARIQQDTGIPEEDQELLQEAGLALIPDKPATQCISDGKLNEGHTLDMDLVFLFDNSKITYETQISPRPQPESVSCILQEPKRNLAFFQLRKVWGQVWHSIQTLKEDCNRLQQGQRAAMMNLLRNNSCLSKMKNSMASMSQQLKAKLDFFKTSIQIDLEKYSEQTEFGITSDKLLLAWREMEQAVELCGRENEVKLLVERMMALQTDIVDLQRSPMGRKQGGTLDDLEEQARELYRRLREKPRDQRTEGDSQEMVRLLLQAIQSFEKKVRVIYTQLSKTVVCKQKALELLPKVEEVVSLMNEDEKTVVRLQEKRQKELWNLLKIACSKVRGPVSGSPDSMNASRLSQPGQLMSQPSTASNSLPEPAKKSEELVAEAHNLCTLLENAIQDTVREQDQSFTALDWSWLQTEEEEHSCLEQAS
Chain of IKK (O15111 whole entry): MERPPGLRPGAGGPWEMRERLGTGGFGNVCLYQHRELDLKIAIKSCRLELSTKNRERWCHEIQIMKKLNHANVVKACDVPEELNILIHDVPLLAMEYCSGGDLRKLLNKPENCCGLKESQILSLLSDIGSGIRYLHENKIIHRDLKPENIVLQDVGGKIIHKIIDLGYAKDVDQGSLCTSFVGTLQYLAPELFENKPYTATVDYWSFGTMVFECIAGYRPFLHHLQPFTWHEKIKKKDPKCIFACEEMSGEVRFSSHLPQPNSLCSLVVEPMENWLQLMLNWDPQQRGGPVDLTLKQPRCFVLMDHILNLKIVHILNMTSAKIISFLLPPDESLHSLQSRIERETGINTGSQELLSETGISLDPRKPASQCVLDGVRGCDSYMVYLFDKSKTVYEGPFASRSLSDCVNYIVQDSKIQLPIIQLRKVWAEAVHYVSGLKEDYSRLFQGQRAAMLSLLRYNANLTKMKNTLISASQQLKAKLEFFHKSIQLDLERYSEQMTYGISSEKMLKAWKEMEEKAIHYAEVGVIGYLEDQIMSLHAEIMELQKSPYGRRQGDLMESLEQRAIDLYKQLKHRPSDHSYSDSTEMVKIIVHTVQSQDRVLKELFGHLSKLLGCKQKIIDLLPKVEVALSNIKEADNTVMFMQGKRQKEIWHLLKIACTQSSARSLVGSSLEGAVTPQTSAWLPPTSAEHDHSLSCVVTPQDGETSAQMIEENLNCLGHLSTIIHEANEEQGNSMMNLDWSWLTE
Chain of IKK (Q9Y6K9 whole entry partner): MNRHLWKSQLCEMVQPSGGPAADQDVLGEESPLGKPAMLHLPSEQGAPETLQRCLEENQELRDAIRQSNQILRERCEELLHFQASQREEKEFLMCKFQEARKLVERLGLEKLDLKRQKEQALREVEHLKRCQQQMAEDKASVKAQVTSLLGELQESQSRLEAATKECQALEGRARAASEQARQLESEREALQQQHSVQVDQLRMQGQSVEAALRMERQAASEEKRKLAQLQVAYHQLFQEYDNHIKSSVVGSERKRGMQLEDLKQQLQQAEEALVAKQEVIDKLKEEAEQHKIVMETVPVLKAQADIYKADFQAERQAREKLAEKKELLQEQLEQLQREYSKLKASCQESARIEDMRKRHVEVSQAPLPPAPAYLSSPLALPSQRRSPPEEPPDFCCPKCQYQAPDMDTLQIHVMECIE

Structure (SMILES) | anti-inflammatory effect [1] | sensitivity of NF-κB activation through IKKβ(C179A) [2] | effect on MEKK1-induced IKK activity [3] | effect on IκBα degradation [4]
CCCCC/C=C/C=C1/C(=O)C=C[C@@H]1C/C=C\CCCC(=O)O [15dPGJ2, 15-deoxy-Δ^12-14-PGJ2] | anti-inflammatory effect | insensitive |  | 
CCCCC[C@H](O)/C=C/[C@H]1C=CC(=O)C1CCCCCCC(=O)O (stereo partly shown) [PGA1, prostaglandin A1] |  |  | inhibited | prevent IκBα degradation; also recorded: prevented
